{
  "source": "PubChem BioAssay AID248",
  "about": "(DTP/NCI, 2004)",
  "system": "L1210 leukemia ip in BDF1 mice, survival T/C",
  "test": "NCI In Vivo Anticancer Drug Screen. Data for tumor model L1210 Leukemia (intraperitoneal) in B6D2F1 (BDF1) mice",
  "conditions": "endpoint: mean survival time, higher = longer survival",
  "outline": "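Transplanted-tumor mice were given test agent; controls received vehicle only. Survival readings from the two groups were divided (treated over control).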",
  "key": {"[1]": {"conditions": "dose: 100.0 mg/kg/injection, schedule: Q01DX009 (ip), vehicle: Klucel (hydroxypropylcellulose) (HPC)"}, "[2]": {"conditions": "dose: 200.0 mg/kg/injection, schedule: Q01DX009 (ip), vehicle: Klucel (hydroxypropylcellulose) (HPC)"}, "[3]": {"conditions": "dose: 400.0 mg/kg/injection, schedule: Q01DX009 (ip), vehicle: Klucel (hydroxypropylcellulose) (HPC)"}, "[4]": {"conditions": "dose: 400.0 mg/kg/injection, schedule: Q01DX001 (ip), vehicle: saline"}},
  "note": "Toxic doses and inconclusive results are not listed.",
  "data": [
    {"smiles": "CC(=O)OC(OC(C)=O)c1ccccc1", "values": [
      {"measurement": "T/C", "setting": "dose: 100.0 mg/kg/injection, schedule: Q04DX002 (ip), vehicle: Klucel (hydroxypropylcellulose) (HPC)", "result": "106 % of control"},
      {"measurement": "T/C", "setting": "dose: 200.0 mg/kg/injection, schedule: Q04DX002 (ip), vehicle: Klucel (hydroxypropylcellulose) (HPC)", "result": "110 % of control"},
      {"measurement": "T/C", "setting": "dose: 400.0 mg/kg/injection, schedule: Q04DX002 (ip), vehicle: Klucel (hydroxypropylcellulose) (HPC)", "result": "103 % of control"}
    ]},
    {"smiles": "Clc1cccc(Cl)c1Br", "values": [
      {"measurement": "T/C", "setting": "[1]", "result": "100 % of control"},
      {"measurement": "T/C", "setting": "dose: 100.0 mg/kg/injection, schedule: Q04DX003 (ip), vehicle: saline with Tween-80", "result": "108 % of control"},
      {"measurement": "T/C", "setting": "[2]", "result": "100 % of control"},
      {"measurement": "T/C", "setting": "dose: 200.0 mg/kg/injection, schedule: Q04DX003 (ip), vehicle: saline with Tween-80", "result": "104 % of control"},
      {"measurement": "T/C", "setting": "[3]", "result": "105 % of control"},
      {"measurement": "T/C", "setting": "dose: 400.0 mg/kg/injection, schedule: Q04DX003 (ip), vehicle: saline with Tween-80", "result": "98 % of control"}
    ]},
    {"smiles": "Cc1cccc2c(C(=O)O)cc(-c3ccc(Cl)cc3)nc12", "values": [
      {"measurement": "T/C", "setting": "dose: 50.0 mg/kg/injection, schedule: Q01DX009 (ip), vehicle: saline with Tween-80", "result": "91 % of control"}
    ]},
    {"smiles": "Clc1ccccc1CSc1ncnc2nc[nH]c12", "values": [
      {"measurement": "T/C", "setting": "dose: 16.0 mg/kg/injection, schedule: Q01DX Z (ip), vehicle: other", "result": "96 % of control"},
      {"measurement": "T/C", "setting": "dose: 31.0 mg/kg/injection, schedule: Q01DX Z (ip), vehicle: other", "result": "106 % of control"},
      {"measurement": "T/C", "setting": "dose: 40.0 mg/kg/injection, schedule: Q01DX009 (ip), vehicle: saline", "result": "120 % of control"},
      {"measurement": "T/C", "setting": "dose: 62.0 mg/kg/injection, schedule: Q01DX Z (ip), vehicle: other", "result": "112 % of control"},
      {"measurement": "T/C", "setting": "dose: 70.0 mg/kg/injection, schedule: Q01DX009 (ip), vehicle: saline", "result": "110 % of control"},
      {"measurement": "T/C", "setting": "dose: 187.0 mg/kg/injection, schedule: Q01DX Z (ip), vehicle: other", "result": "150 % of control"},
      {"measurement": "T/C", "setting": "dose: 265.0 mg/kg/injection, schedule: Q01DX001 (ip), vehicle: acetone", "result": "124 % of control"},
      {"measurement": "T/C", "setting": "dose: 265.0 mg/kg/injection, schedule: Q01DX001 (ip), vehicle: saline", "result": "107 % of control"},
      {"measurement": "T/C", "setting": "dose: 300.0 mg/kg/injection, schedule: Q01DX009 (ip), vehicle: acetone", "result": "94 % of control"},
      {"measurement": "T/C", "setting": "dose: 300.0 mg/kg/injection, schedule: Q01DX009 (ip), vehicle: saline", "result": "123 % of control"},
      {"measurement": "T/C", "setting": "dose: 375.0 mg/kg/injection, schedule: Q01DX Z (ip), vehicle: other", "result": "103 % of control"},
      {"measurement": "T/C", "setting": "[4]", "result": "110 % of control"},
      {"measurement": "T/C", "setting": "dose: 400.0 mg/kg/injection, schedule: Q01DX009 (ip), vehicle: saline", "result": "115 % of control"},
      {"measurement": "T/C", "setting": "dose: 450.0 mg/kg/injection, schedule: Q01DX009 (ip), vehicle: acetone", "result": "91 % of control"},
      {"measurement": "T/C", "setting": "dose: 500.0 mg/kg/injection, schedule: Q01DX Z (ip), vehicle: other", "result": "86 % of control"}
    ]},
    {"smiles": "CCCNC(=O)Oc1ccc(C(=O)OCC)cc1", "values": [
      {"measurement": "T/C", "setting": "dose: 100.0 mg/kg/injection, schedule: Q01DX009 (ip), vehicle: saline with Tween-80", "result": "93 % of control"},
      {"measurement": "T/C", "setting": "dose: 200.0 mg/kg/injection, schedule: Q01DX009 (ip), vehicle: saline with Tween-80", "result": "98 % of control"},
      {"measurement": "T/C", "setting": "dose: 400.0 mg/kg/injection, schedule: Q01DX009 (ip), vehicle: saline with Tween-80", "result": "94 % of control"}
    ]},
    {"smiles": "NC(CCC(=O)NC1(C(=O)O)C2CC3CC(C2)CC1C3)C(=O)O", "note": "(stereo not given)", "values": [
      {"measurement": "T/C", "setting": "[1]", "result": "87 % of control"},
      {"measurement": "T/C", "setting": "[2]", "result": "103 % of control"},
      {"measurement": "T/C", "setting": "[3]", "result": "89 % of control"}
    ]},
    {"smiles": "N=C(N)c1ccc(NC(=O)c2ccc(C(=O)Nc3ccc(C(=N)N)cc3)c(N)c2)cc1", "values": [
      {"measurement": "T/C", "setting": "dose: 62.0 mg/kg/injection, schedule: Q01DX Z (ip), vehicle: carboxymethylcellulose (CMC)", "result": "106 % of control"},
      {"measurement": "T/C", "setting": "dose: 125.0 mg/kg/injection, schedule: Q01DX Z (ip), vehicle: carboxymethylcellulose (CMC)", "result": "118 % of control"},
      {"measurement": "T/C", "setting": "dose: 500.0 mg/kg/injection, schedule: Q01DX Z (ip), vehicle: carboxymethylcellulose (CMC)", "result": "113 % of control"}
    ]},
    {"smiles": "CN(C)c1ccc([PH+](c2ccc(N(C)C)cc2)c2ccc(N(C)C)cc2)cc1.CN(C)c1ccc([PH+](c2ccc(N(C)C)cc2)c2ccc(N(C)C)cc2)cc1.[Cl][Hg][Cl]", "values": [
      {"measurement": "T/C", "setting": "dose: 50.0 mg/kg/injection, schedule: Q01DX009 (ip), vehicle: Klucel (hydroxypropylcellulose) (HPC)", "result": "94 % of control"},
      {"measurement": "T/C", "setting": "[1]", "result": "90 % of control"},
      {"measurement": "T/C", "setting": "[2]", "result": "90 % of control"}
    ]},
    {"smiles": "CC(C)(C)C12OC1C(=O)C1(C(C)(C)C)OC1C2=O", "note": "(stereo not given)", "values": [
      {"measurement": "T/C", "setting": "[1]", "result": "97 % of control"},
      {"measurement": "T/C", "setting": "[2]", "result": "103 % of control"},
      {"measurement": "T/C", "setting": "[3]", "result": "105 % of control"}
    ]},
    {"smiles": "O=C(c1ccccc1)c1ccc(NC(=S)Nc2ccc(C(=O)c3ccccc3)cc2)cc1", "values": [
      {"measurement": "T/C", "setting": "dose: 20.0 mg/kg/injection, schedule: Q01DX005 (ip), vehicle: saline with Tween-80", "result": "97 % of control"},
      {"measurement": "T/C", "setting": "dose: 40.0 mg/kg/injection, schedule: Q01DX005 (ip), vehicle: saline with Tween-80", "result": "92 % of control"},
      {"measurement": "T/C", "setting": "dose: 80.0 mg/kg/injection, schedule: Q01DX005 (ip), vehicle: saline with Tween-80", "result": "92 % of control"},
      {"measurement": "T/C", "setting": "dose: 160.0 mg/kg/injection, schedule: Q01DX005 (ip), vehicle: saline with Tween-80", "result": "95 % of control"},
      {"measurement": "T/C", "setting": "dose: 320.0 mg/kg/injection, schedule: Q01DX005 (ip), vehicle: saline with Tween-80", "result": "97 % of control"}
    ]},
    {"smiles": "[Cl][Tl]", "values": [
      {"measurement": "T/C", "setting": "dose: 100.0 mg/kg/injection, schedule: Q01DX001 (ip), vehicle: saline", "result": "94 % of control"},
      {"measurement": "T/C", "setting": "dose: 100.0 mg/kg/injection, schedule: Q04DX003 (ip), vehicle: saline", "result": "106 % of control"},
      {"measurement": "T/C", "setting": "dose: 200.0 mg/kg/injection, schedule: Q01DX001 (ip), vehicle: saline", "result": "101 % of control"},
      {"measurement": "T/C", "setting": "dose: 200.0 mg/kg/injection, schedule: Q04DX003 (ip), vehicle: saline", "result": "90 % of control"},
      {"measurement": "T/C", "setting": "[4]", "result": "94 % of control"}
    ]},
    {"smiles": "O=C(Nc1nc2ccccc2s1)c1ccc(C(=O)Nc2nc3ccccc3s2)cc1", "values": [
      {"measurement": "T/C", "setting": "dose: 100.0 mg/kg/injection, schedule: Q01DX001 (ip), vehicle: other", "result": "93 % of control"},
      {"measurement": "T/C", "setting": "dose: 200.0 mg/kg/injection, schedule: Q01DX001 (ip), vehicle: other", "result": "90 % of control"},
      {"measurement": "T/C", "setting": "dose: 400.0 mg/kg/injection, schedule: Q01DX001 (ip), vehicle: other", "result": "91 % of control"}
    ]},
    {"smiles": "N#CSCc1ccccc1", "values": [
      {"measurement": "T/C", "setting": "dose: 75.0 mg/kg/injection, schedule: Q01DX001 (ip), vehicle: carboxymethylcellulose (CMC)", "result": "118 % of control"},
      {"measurement": "T/C", "setting": "dose: 100.0 mg/kg/injection, schedule: Q04DX003 (ip), vehicle: Klucel (hydroxypropylcellulose) (HPC)", "result": "91 % of control"},
      {"measurement": "T/C", "setting": "dose: 150.0 mg/kg/injection, schedule: Q01DX001 (ip), vehicle: carboxymethylcellulose (CMC)", "result": "98 % of control"},
      {"measurement": "T/C", "setting": "dose: 200.0 mg/kg/injection, schedule: Q04DX003 (ip), vehicle: Klucel (hydroxypropylcellulose) (HPC)", "result": "103 % of control"},
      {"measurement": "T/C", "setting": "dose: 400.0 mg/kg/injection, schedule: Q04DX003 (ip), vehicle: Klucel (hydroxypropylcellulose) (HPC)", "result": "94 % of control"}
    ]},
    {"smiles": "N#CCCCC1(CCCC#N)OCCO1", "values": [
      {"measurement": "T/C", "setting": "dose: 25.0 mg/kg/injection, schedule: Q01DX009 (ip), vehicle: saline", "result": "94 % of control"},
      {"measurement": "T/C", "setting": "dose: 50.0 mg/kg/injection, schedule: Q01DX009 (ip), vehicle: saline", "result": "100 % of control"}
    ]}
  ]
}
